Experiment: Human HepG2 cell viability assay in 384 well format
Assay type: toxicity, cell-based
Design: dose 125 nL, time 70.5 hour; concentration not given beside the values
Conditions: HepG2 cells, read-out: Inhibition

| Compound | cytotoxicity at 70.5 h |
| --- | --- |
| OCCN(Cc1nc(-c2ccc3c(c2)OCO3)no1)Cc1cccs1 | -16.8% |
| CC(C)c1cc(-c2cnn(C)c2C2CC2)c(C#N)c(N)n1 | -0.849% |
| CCOCCC(=O)N1C[C@H]2CC[C@@H]1CN(Cc1ccncc1)C2 | -11.6% |
| Nc1ccnc(N2CCC(Cc3ccccc3Cl)(C(=O)O)CC2)n1 | 1.15% |
| COC(=O)c1ccc(-c2noc(CN(CCO)Cc3cccs3)n2)cc1 | -10.2% |
| COCCn1ccnc1C1CCCN(c2ncnc3c(C)csc23)C1 (stereo not given) | 23.8% |
| Cc1ccc(C(=O)N2CC(c3cccnc3)C2)cc1N1CCNC1=O | -7.03% |
| CN(C)[C@H]1CCCCN(C(=O)COCc2nc3cc(F)ccc3[nH]2)C1 | 15% |
| COCC(=O)N1CCCN(Cc2c(C)nc3ccc(Cl)cn23)CC1 | 2.35% |
| CN1CCc2[nH]nc(C(=O)N3CCC4(CCCO4)CC3)c2C1 | -0.824% |
| COc1ccccc1OC1CCN(C(=O)c2c[nH]c(=O)[nH]c2=O)CC1 | -4.88% |
| O=C(COCC(F)(F)C(F)F)N1CCC(c2ncc[nH]2)CC1 | -5.35% |
| COCCN1CC(C(=O)N(CCN(C)C)Cc2ccc(C)s2)CC1=O (stereo not given) | -4.05% |
| CN1CCN2CCN(Cc3cnc(NCc4ccccc4)nc3)CC2C1 (stereo not given) | 24% |
| CCC(CC)n1nc(C)cc1NC(=O)C1CCCO1 (stereo not given) | -8.67% |
| CC(NCc1cc(O)c2cccc(F)c2n1)c1ccc(S(C)(=O)=O)cc1 (stereo not given) | -12.6% |
| Cn1cc(CN2CC[C@@H]3[C@@H](CCC(=O)N3CCc3ccccc3)C2)cn1 | -0.863% |
| Cc1cnc(C(=O)N2CCN(C(=O)C(C)C)[C@@H]3CS(=O)(=O)C[C@@H]32)cn1 | -6.02% |
| CCNCCOc1ccc(-c2cc(N)nc3[nH]ccc23)cc1 | -10.1% |
| CC(=O)NCCC(=O)N(C/C=C/c1ccccc1)CCO | 24% |
| COc1cc(N2CCCC(c3nccn3Cc3cccnc3)C2)ncn1 (stereo not given) | -14.5% |
| CSc1nnc(CC2CCN(C(=O)Cc3ccncc3)CC2)n1C | -16.8% |

| Compound | cytotoxicity at 70.5 h |
| --- | --- |
| Cc1nnc(CNC(=O)[C@@H]2C[C@H](NC(=O)C(C)(C)C)CN2C)[nH]1 | -9.08% |
| O=C(O)c1ccccc1-c1c(-c2ccccc2)ncn1C[C@H]1CCCN1 | -3.04% |
| CCN1CC(CN(C)Cc2nc(-c3ccc(C)o3)oc2C)CC1=O (stereo not given) | -6.14% |
| Cc1cc(C(=O)N2CC(O)CO2)c2cccc(C)c2n1 (stereo not given) | -13% |
| CC(C)Oc1ccc2c(NC(=O)[C@H](C)O)nn(CC(F)(F)F)c2c1 | -16.3% |
| COCC[C@]1(O)CCN(Cc2ccccn2)C[C@H]1C | -0.199% |
| CN1CCCC(CCC(=O)NCCc2nnc(N)s2)C1 (stereo not given) | 9.25% |
| CCCc1nc(N(C)CCN2CCCCCC2)c2cnn(C)c2n1 | -11% |
| CC(C)c1nccn1C(C)C(=O)NC1CCN(S(C)(=O)=O)CC1 (stereo not given) | 3.51% |
| O=C(O)[C@@H]1CN(C(=O)c2ccc3nccnc3c2)C[C@H]1c1ccncc1 | -7.07% |
| CNS(=O)(=O)c1ccc(CN(C)Cc2nc3ccc(F)cc3[nH]2)cc1 | -4.95% |
| CC(=O)N1CCCN(c2nccc(-c3c(C)nn(C)c3C)n2)CC1 | -3.87% |
| CCNc1nc(C)c(C(=O)N(C)Cc2nc(-c3ccncc3)no2)s1 | 1.19% |
| CCN(CC)C1CCN(c2nccc(C3CCCC3)n2)C1 (stereo not given) | -13.5% |
| O=C(c1ccc2cccc(F)c2n1)N1CCN(CCn2cncn2)CC1 | -9.3% |
| N#Cc1ccccc1CN1CCC(c2nccn2CC2CCC2)CC1 | -1.95% |
| CCCc1nnc(NC2CCN(CCO)CC2)o1 | -6.74% |
| Cc1nc(N)cc(NCc2csc(N(C)C)n2)n1 | -4.3% |
| CCc1nc(Cn2nc(C3CCNCC3)n(-c3ccccc3)c2=O)cs1 | -5.68% |
| Cc1nn(C)c2nc(NC(C)c3n[nH]c(=O)[nH]3)sc12 (stereo not given) | -10.8% |
| Cc1ccc(OC2(C(=O)O)CCN(C(=O)CCc3ccco3)CC2)cn1 | -0.99% |
| CC(C)N1CC2(CCCN(c3ccnc4ccccc34)C2)CCC1=O (stereo not given) | -0.494% |

| Compound | cytotoxicity at 70.5 h |
| --- | --- |
| CCN(CC)CCc1nc2c([nH]1)CC(c1ccc(Cl)cc1)CNC2=O (stereo not given) | -3.81% |
| CC(C)c1nnc(CN2CCCC3(CC2)CN(C)C(=O)O3)o1 (stereo not given) | -3.73% |
| Cc1nc(N2CCC3(CCCN(CC4CC4)C3=O)C2)c2sccc2n1 (stereo not given) | 0.2% |
| Cc1cc(C)nc(CN(C)C(=O)c2cccc(CCC(C)(C)O)c2)c1 | -4.1% |
| O=C(CCNCc1cc(O)c2cc(F)ccc2n1)N1CCCC1 | -8.32% |
| CN(C)C(C(=O)NC1(CO)CCCC1)c1ccc(F)cc1 (stereo not given) | 6.65% |
| CCCOc1ccccc1CCCNc1ncnc2oc(C)nc12 | -7.16% |
| CCCNC(=O)N1CCc2ccc(S(=O)(=O)N3CCCC3)cc2C1 | -10.1% |
| CNc1nc2c(c(C(=O)N3CCCC3)n1)CN(C(=O)CCSC)CC2 | -1.55% |
| CSCc1noc(-c2ccc(C)c(N3CCNC3=O)c2)n1 | -9.43% |
| Cn1cnnc1C1CCCN(Cc2nc(Cc3ccccc3)no2)C1 (stereo not given) | 13% |
| CN(C)C(=O)c1nc(CN2CC(c3ccccc3)CC2=O)no1 (stereo not given) | 10.4% |
| Cc1cc(CC(C)NC2CCN(CC(C)C)CC2)[nH]n1 (stereo not given) | -10.6% |
| N[C@@H]1CC[C@H](C(=O)NCCn2cc(Cl)cn2)C1 | 3.97% |
| COc1cccc2c1OCC(C(=O)NCc1ncc3c(n1)CCC3)C2 (stereo not given) | -9.1% |
| CCc1nnc(CN(CC)C(=O)C2CC(=O)N(Cc3cccnc3)C2)o1 (stereo not given) | -11.4% |
| COc1ccc(NC2(C(=O)N3CCCn4cncc4C3)CCCC2)cc1 | -13% |
| CN(C)CCO[C@H]1C[C@@H](O)C12CCN(c1nccc3ccccc13)CC2 | -10.3% |
| Cc1nn(C)cc1-c1ccnc(NCCN)n1 | -8.28% |
| Cc1nc[nH]c1CN1CCN(C(=O)C2(C)CC2)[C@H]2CS(=O)(=O)C[C@H]21 | -11.5% |
| Cc1ccc(F)c(C(=O)N2C[C@@H](C(=O)O)[C@H](c3ccncc3)C2)c1Cl | -8.75% |
| COc1cccc(-c2noc(-c3ccc(NCC(C)O)nc3)n2)c1OC (stereo not given) | -0.152% |

| Compound | cytotoxicity at 70.5 h |
| --- | --- |
| O=C(O)COc1ccc(Cl)cc1CN1CCC2(CCNCC2)CC1 | -11.2% |
| COc1ncccc1-c1nc(-c2ccccn2)nn1C1CCS(=O)(=O)C1 (stereo not given) | -7.2% |
| Cc1nccnc1-n1c(COCC(=O)O)nc2c(C)cccc21 | -1.07% |
| COCc1noc(CN2C[C@H](NS(C)(=O)=O)[C@@H](C3CC3)C2)n1 | -11% |
| Cc1nc(C)c(C(=O)N2CCCC(C(=O)c3nccn3C)C2)s1 (stereo not given) | -2.4% |
| COCCC1CN(Cc2cn(CCC(N)=O)c3ccccc23)CCO1 (stereo not given) | -5.24% |
| CN1CC(c2ccccc2)CC12CCN(C(=O)c1ccc(Cl)cc1)CC2 (stereo not given) | 7.42% |
| CN1CC2(CCN(c3ncnc4c3CCNC4)CC2)OC1=O | -9.3% |
| CCC(C)N(Cc1ccncc1)Cc1ccc(-n2cccn2)cc1 (stereo not given) | -5.94% |
| Cc1cc(C(=O)NC2CCCc3c2cnn3-c2cccc(C)c2C)[nH]n1 (stereo not given) | -3.11% |
| CCn1c(N)nc2cc(C(=O)N(C)Cc3cc(C(C)(C)C)n[nH]3)cnc21 | -5.41% |
| CCN(CC)S(=O)(=O)N1CCCC(c2nccn2Cc2ccncc2)C1 (stereo not given) | 8.67% |
| Cc1cc2c(=O)n(CCSc3ncn[nH]3)cnc2s1 | -7.44% |
| COc1ccccc1S(=O)(=O)N1CCC2(CC1)OCCCC2O (stereo not given) | -6.84% |
| COC(=O)N1CCN(c2ncnc3nc(C)cc(C)c23)CC1 | -4.12% |
| CCN1CCC(N2CCN(C)C3(CCC(=O)N(CCOC)CC3)C2)CC1 (stereo not given) | -9.42% |
| CN(Cc1cccc(C(=O)Nc2ccnn2C)c1)CC1(C)COC1 | 0.785% |
| CN1CCC(Cc2noc(-c3cccc4c3OCC4)n2)CC1 | -8.69% |
| Cc1[nH]c2c(C)ccc(C)c2c1CC(=O)NCCNc1cccnc1 | 27% |
| CNc1nc(C)cc(NC2CCCN(C3Cc4ccccc4C3)C2)n1 (stereo not given) | 14.9% |
| Clc1cc(N2CCN(C3CCOCC3)CC2)nc2[nH]ccc12 | -0.399% |
| CC(C)c1cc(N2CCC(NS(C)(=O)=O)CC2)n2nccc2n1 | -2.38% |

| Compound | cytotoxicity at 70.5 h |
| --- | --- |
| Cc1cc(N2CCC3(CCC(=O)N(CCCO)C3)CC2)nc(N(C)C)n1 | -2.5% |
| COCc1nc(CN2CC(C)(c3ccccc3)CCC2=O)no1 (stereo not given) | -6.99% |
| COc1ccc(C(C)C)cc1C1CC(=O)NCc2nc(N(C)C)sc21 (stereo not given) | 13.4% |
| CCN(C)C[C@@H]1CN(Cc2cccc(O)c2)C[C@@H]1CO | -11.8% |
| c1cc2c(cc1CN1CCC(Cc3noc(C4CC4)n3)CC1)OCCO2 | 20.2% |
| Fc1cnccc1CN1CCC2(CCNCC2)C1 | -10.4% |
| Cc1cnn(CC(=O)N2CCC3(CCC(=O)N(CCCO)C3)CC2)c1 | 0.675% |
| CC(C)=CCN1C[C@H]2CC[C@@H]1CN(C(=O)c1ccc3[nH]cnc3c1)C2 | 3.14% |
| CN(C)CCCN(C)c1nccc(N2CCN[C@H]3CS(=O)(=O)C[C@H]32)n1 | 23.2% |
| CCOC(=O)CC1CCCCN1C(=O)c1cc(C)on1 (stereo not given) | -8.65% |
| CCc1nc(C)c(C(=O)N[C@@H]2c3ccccc3C[C@@H]2O)o1 | 16% |
| Nc1nc2c(c(N3CCCC(CN4CCCC4=O)C3)n1)CCNCC2 (stereo not given) | -5.58% |
| CC(C)(O)CCc1cccc(C(=O)N[C@H](C(N)=O)c2ccccc2)c1 | -11% |
| CC(=O)N[C@@H]1CN(Cc2ccc(F)cc2F)C[C@H]1c1ccc(C)o1 | 11.7% |
| O=c1cc(-c2cccnc2)nc(-c2ccc(CN3CC[C@@H](O)C3)cc2)[nH]1 | 12.1% |
| CCS(=O)(=O)c1ncc(CN(C)Cc2ccccc2OC)n1CCOC | -5.74% |
| CN(CCNc1ncc2c(n1)CCN2c1ccccc1)S(C)(=O)=O | -9.7% |
| Cc1cnccc1N1CCCN(Cc2ccc(-c3cc[nH]n3)o2)CC1 | -5.27% |
| CC(C)N1CCC2(CCCN(Cc3ccc(F)cc3)C2=O)C1 (stereo not given) | 27.4% |
| Cc1cc(CC(C)NC(=O)COc2ccc(F)cc2F)[nH]n1 (stereo not given) | -5.3% |
| O=C(O)c1cc(-c2cn[nH]c2)cc(S(=O)(=O)N2CCSCC2)c1 | -4.23% |
| Cc1nc(C)c(C)c(NCCSc2ccccn2)n1 | -6.54% |
